For orientation: log P means the decadic logarithm of the partition coefficient of the neutral form, usually between octanol and water.

This is an account of results in patent publication US9789211B2, “Methods and compositions for positron emission tomography myocardial perfusion imaging” (UNIVERSITY OF SOUTHERN CALIFORNIA, priority 2012, dated 2017).

Series [1] deals with H345 lung carcinoma cells. The experiment in a line: mitochondrial membrane potential-dependent cellular uptake with CCCP treatment. To be noted: H345 cells incubated 10 min with CCCP before adding tracers. In kind it is cell-based. As for the experimental part: Uptake kinetics of ^64Cu-Sar-TPP and 3H-TPP (standard) may be examined in H345 lung carcinoma cells. In brief, H345 cells will be harvested by trypsinization and washed twice with cold PBS buffer. Cells are counted and re-suspended in loading buffer at a concentration of 2×10^6 cells/mL. The cell suspension (0.5 mL) may be transferred to Eppendorf tubes and incubated at 37° C. for 60 min. An equal volume of loading solution containing 0.5-5 nM ^64Cu-Sar-TPP and 3H-TPP will be added. The sample may be centrifuged (800 rpm, 5 min) to terminate the uptake. Aliquots of the supernatant are then obtained and the remaining solution is aspirated. The radioactivity of the pellet and supernatant is counted together with standard solution ( 1/1,000) in a gamma counter. After completion of gamma counting, scintillation counting are performed after the complete decay of ^64Cu (two weeks). Cell uptake values of ^64Cu-Sar-TPP in H345 cells may be determined over incubation periods of 0.5, 1, 2, 4, and 24 h. […] The mitochondrial membrane potential-dependent cellular uptake of ^64Cu-Sar-TPP will be further assessed using the H345 cells treated with carbonyl cyanide m-chlorophenylhydrazone (CCCP). […] Only the ^64Cu-Sar-TPP probes that are sensitive towards CCCP will be evaluated in future investigation because this experiment supports the tracer uptakes are depend on mitochondria potential as we proposed above.

The conditions of series [2]: cited from earlier work.
For series [3] the following is noted: cited from earlier work. This is another data set of the same source.

For `N#CC(C#N)=NNc1cccc(Cl)c1` [CCCP, carbonyl cyanide m-chlorophenylhydrazone], in series [1], the “cell-associated activity of ^64Cu-Sar-TPP and 3H-TPP” value is on record as “dose dependent decrease”.

For `[C-]#[N+]CC(C)(C)OC.[C-]#[N+]CC(C)(C)OC.[C-]#[N+]CC(C)(C)OC.[C-]#[N+]CC(C)(C)OC.[C-]#[N+]CC(C)(C)OC.[C-]#[N+]CC(C)(C)OC.[Tc]` [^99mTc-sestamibi], the “log P” value in series [2] is 1.1.

For “^64/62Cu-pyruvaldehyde-bis(N4-methyl-thiosemicarbazone) [[^64/62Cu]-PTSM]”, the “clearance from the blood pool” value in series [3] (association with serum albumin) is “clears slowly”. Further, the liver uptake result in series [3] (spillover into the inferior wall of myocardial) is recorded as “high liver uptake”.
